{"source": "patent US20240287172A1", "about": "“PROTEIN BINDERS TO IRHOM2 EPITOPES” (SCIRHOM GMBH, priority 2019, published 2024)", "system": "LPS-induced release of endogenous TNFα from human THP-1 monocytic cells", "test": "ELISA-based TNFα release assay, LPS-induced, THP-1 cells", "format": "cell-based", "conditions": "LPS 50 ng/ml, 2 hours, antibodies purified from hybridoma supernatants and IgG at 10 μg/ml, Batimastat at 10 μM", "procedure": "In the following study, ELISA-based TNFα release assays were performed to verify the inhibitory effects of the purified antibodies of the invention on LPS-induced release of endogenous TNFα from human THP-1 monocytic cells.\nIn brief, on day 1, Nunc black MaxiSorp® 96-well plates (Thermo Fisher Scientific, USA) were coated overnight with 100 μl per well of mouse anti-human TNFα capture antibody (provided as part of the DuoSet ELISA kit) at 4 μg/ml TBS at 4° C. On day 2, the capture antibody solution was removed and MaxiSorp® plates were blocked with 300 μl per well of TBS, 1% BSA at room temperature for 3 hours. […]\nFollowing another round of 4 times washing with 350 μl TBS-T (Carl Roth, Germany) per well on a 96-head plate washer (Tecan Group, Switzerland) and careful removal of all buffer traces after the fourth cycle, 100 μl AttoPhos substrate solution (Promega, USA) per well was added for incubation in the dark at room temperature for 1 hour. Using an infinite M1000 (Tecan Group, Switzerland) microplate reader, the fluorescence of each well was collected at an excitation wavelength of 435 nm and an emission wavelength of 555 nm. […]", "data": [{"compound": "CNC(=O)[C@H](Cc1ccccc1)NC(=O)[C@H](CC(C)C)[C@H](CSc1cccs1)C(=O)NO", "note": "[Batimastat]", "values": [{"measurement": "inhibition at 10 µM", "result": 96.2, "unit": "%"}]}]}
